According to patent publication US20080009418A1, “Selective Inhibitors” (Alchemia LTD., priority 2004, published 2008):

Key:
[1] = molecular target: T1, Human neurokinin (NK1) (Homo sapiens, UniProt P25103); assay: Radioligand binding, human neurokinin NK1 membranes, filtration, [125I]-Substance P; conditions: compound at 10 μM; for A8 radioligand binding, percentage inhibition / A8: inhibition of radioligand binding, human neurokinin (NK1): [125I]-Substance P
T1 construct: purchased Perkin Elmer Biosignal
Summary of the method: (§1)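 Percent inhibition of radioligand binding measured on recombinant human membranes: NK1 with [125I]-Substance P, KOP with [3H]-Diprenorphine. Incubation 1 h at room temperature, then harvest onto 0.3% PEI-soaked filters, cold Tris-HCl pH 7.4 washes and scintillation counting; non-specific binding from reference ligand wells.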

[2] = molecular target: T2, Human melanin-concentrating hormone (MCH1) (Homo sapiens, UniProt Q99705); assay: Radioligand binding, human melanin-concentrating hormone MCH1 membranes, FlashPlate, [125I]-S36057; conditions: compound at 10 μM; for A6 radioligand binding, percentage inhibition / A6: inhibition of radioligand binding, human melanin-concentrating hormone (MCH1): [125I]-S36057
T2 construct: purchased Perkin Elmer Biosignal
Summary of the method: (§2)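 Cloned human receptor membranes were coated onto FlashPlate wells and incubated with radioligand and compound (added from a 0.5 mM DMSO daughter plate) for 1 hour at room temperature in the dark. Scintillation counting gave percent inhibition, with DMSO defining total and reference ligand defining non-specific binding.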

[3] = molecular target: T3, Human δ-opioid (DOP) (Homo sapiens, UniProt P41143); assay: Radioligand binding, human δ-opioid (DOP) membranes, FlashPlate, [3H]-Bremazocine; conditions: compound at 10 μM; for A1 radioligand binding, percentage inhibition / A1: inhibition of radioligand binding, human δ-opioid (DOP): [3H]-Bremazocine
T3 construct: purchased Perkin Elmer Biosignal
Summary of the method: as §2

[4] = molecular target: T4, Mouse urotensin (mUR2) (Mus musculus, UniProt Q8VIH9); assay: Radioligand binding, mouse urotensin mUR2 membranes, FlashPlate, [125I]-Urotensin II; conditions: compound at 10 μM; for A11 radioligand binding, percentage inhibition / A11: inhibition of radioligand binding, mouse urotensin (mUR2): [125I]-Urotensin II
T4 construct: purchased Perkin Elmer Biosignal
T4 sequence (Q8VIH9 1-385): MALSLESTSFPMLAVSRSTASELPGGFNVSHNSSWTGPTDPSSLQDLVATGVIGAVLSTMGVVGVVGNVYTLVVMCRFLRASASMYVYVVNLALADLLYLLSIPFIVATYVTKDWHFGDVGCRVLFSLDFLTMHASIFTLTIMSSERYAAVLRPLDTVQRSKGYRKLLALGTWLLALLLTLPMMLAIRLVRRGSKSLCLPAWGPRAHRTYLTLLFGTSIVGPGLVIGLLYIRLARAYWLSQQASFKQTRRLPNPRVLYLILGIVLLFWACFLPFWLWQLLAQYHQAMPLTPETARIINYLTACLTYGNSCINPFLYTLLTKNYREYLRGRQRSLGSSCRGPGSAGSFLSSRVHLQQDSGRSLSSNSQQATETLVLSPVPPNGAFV
Summary of the method: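 Cloned mouse urotensin (mUR2) receptor membranes from Perkin Elmer Biosignal were immobilized in FlashPlate microplates using a proprietary coating. Each well got 19.5 μl buffer, then 0.5 μl of DMSO, reference ligand, or compound. Adding 5 μl of [125I]-Urotensin II, diluted to 5× final concentration in binding buffer, started binding. Plates were sealed with TopSeal-A and incubated 1 hour at room temperature in the dark. Wells were counted for 30 seconds each on a TopCount after a 60-second delay, and percentage inhibition was calculated.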

[5] = molecular target: T5, Human opioid (ORL1) (Homo sapiens, UniProt P41146); assay: Radioligand binding, human opioid ORL1 membranes, FlashPlate, [125I]-Nociceptin; conditions: compound at 10 μM; for A10 radioligand binding, percentage inhibition / A10: inhibition of radioligand binding, human opioid (ORL1): [125I]-Nociceptin
T5 construct: purchased Perkin Elmer Biosignal
Summary of the method: as §2

[6] = molecular target: T6, Human Melanocortin (MC3) (Homo sapiens, UniProt P41968); assay: Radioligand binding, human melanocortin MC3 membranes, FlashPlate, [125I]-NDP-αMSH; conditions: compound at 10 μM; for A3 radioligand binding, percentage inhibition / A3: inhibition of radioligand binding, human melanocortin (MC3): [125I]-NDP-αMSH
T6 construct: purchased Perkin Elmer Biosignal
Summary of the method: as §2

[7] = molecular target: T7, Human μ-opioid (MOP) (Homo sapiens, UniProt P35372); assay: Radioligand binding, human μ-opioid (MOP) membranes, FlashPlate, [3H]-Naloxone; conditions: compound at 10 μM; for A7 radioligand binding, percentage inhibition / A7: inhibition of radioligand binding, human μ-opioid (MOP): [3H]-Naloxone
T7 construct: purchased Perkin Elmer Biosignal
Summary of the method: as §2

[8] = molecular target: T8, Human melanocortin (MC5) (Homo sapiens, UniProt P33032); assay: Radioligand binding, human melanocortin MC5 membranes, FlashPlate, [125I]-NDP-αMSH; conditions: compound at 10 μM; for A5 radioligand binding, percentage inhibition / A5: inhibition of radioligand binding, human melanocortin (MC5): [125I]-NDP-αMSH
T8 construct: purchased Perkin Elmer Biosignal
Summary of the method: as §2

[9] = molecular target: T9, Human κ-Opioid (KOP) (Homo sapiens, UniProt P41145); assay: Radioligand binding, human κ-opioid (KOP) membranes, filtration, [3H]-Diprenorphine; conditions: compound at 10 μM; for A2 radioligand binding, percentage inhibition / A2: inhibition of radioligand binding, human κ-opioid (KOP): [3H]-Diprenorphine
T9 construct: purchased Perkin Elmer Biosignal
Summary of the method: as §1

[10] = molecular target: T10, Human Melanocortin (MC4) (Homo sapiens, UniProt P32245); assay: Radioligand binding, human melanocortin MC4 membranes, FlashPlate, [125I]-NDP-αMSH; conditions: compound at 10 μM; for A4 radioligand binding, percentage inhibition / A4: inhibition of radioligand binding, human melanocortin (MC4): [125I]-NDP-αMSH
T10 construct: purchased Perkin Elmer Biosignal
Summary of the method: as §2

[11] = molecular target: T11, Human neuropeptide Y (NPY-Y1) (Homo sapiens, UniProt P25929); assay: Radioligand binding, human neuropeptide Y NPY-Y1 membranes, FlashPlate, [125I]-PYY; conditions: compound at 10 μM; for A9 radioligand binding, percentage inhibition / A9: inhibition of radioligand binding, human neuropeptide Y (NPY-Y1): [125I]-PYY
T11 construct: purchased Perkin Elmer Biosignal
T11 sequence (P25929 1-384): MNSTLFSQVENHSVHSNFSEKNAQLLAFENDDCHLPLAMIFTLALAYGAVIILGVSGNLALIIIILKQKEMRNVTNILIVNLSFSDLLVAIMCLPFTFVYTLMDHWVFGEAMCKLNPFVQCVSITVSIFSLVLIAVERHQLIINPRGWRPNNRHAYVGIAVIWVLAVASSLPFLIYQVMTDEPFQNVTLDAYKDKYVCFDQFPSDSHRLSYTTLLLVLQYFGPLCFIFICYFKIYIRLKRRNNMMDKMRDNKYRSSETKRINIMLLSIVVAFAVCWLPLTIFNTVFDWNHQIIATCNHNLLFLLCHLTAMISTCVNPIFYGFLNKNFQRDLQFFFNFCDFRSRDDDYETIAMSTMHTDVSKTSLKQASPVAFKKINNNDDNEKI
Summary of the method: as §2

T1 sequence (P25103 whole entry): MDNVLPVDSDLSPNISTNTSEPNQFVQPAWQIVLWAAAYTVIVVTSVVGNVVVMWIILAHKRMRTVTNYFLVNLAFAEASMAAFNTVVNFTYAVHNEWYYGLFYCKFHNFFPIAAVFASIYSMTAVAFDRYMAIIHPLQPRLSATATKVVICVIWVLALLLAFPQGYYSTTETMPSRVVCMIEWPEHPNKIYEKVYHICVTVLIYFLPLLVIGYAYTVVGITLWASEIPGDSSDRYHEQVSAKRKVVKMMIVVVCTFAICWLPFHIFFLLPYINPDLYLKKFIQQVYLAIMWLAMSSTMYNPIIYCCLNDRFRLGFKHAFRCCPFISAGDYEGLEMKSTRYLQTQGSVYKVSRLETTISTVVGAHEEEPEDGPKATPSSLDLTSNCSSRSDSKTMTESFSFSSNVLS
T8 sequence (P33032 whole entry): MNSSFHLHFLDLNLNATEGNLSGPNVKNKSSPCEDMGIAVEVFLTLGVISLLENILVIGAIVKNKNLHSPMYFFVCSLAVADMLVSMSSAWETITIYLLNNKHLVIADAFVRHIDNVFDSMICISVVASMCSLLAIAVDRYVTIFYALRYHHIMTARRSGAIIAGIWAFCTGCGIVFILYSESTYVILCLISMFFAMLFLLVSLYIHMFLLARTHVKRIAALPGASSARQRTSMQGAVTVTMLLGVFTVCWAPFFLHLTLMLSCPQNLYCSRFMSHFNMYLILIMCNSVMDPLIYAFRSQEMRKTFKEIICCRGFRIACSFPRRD
T10 sequence (P32245 whole entry): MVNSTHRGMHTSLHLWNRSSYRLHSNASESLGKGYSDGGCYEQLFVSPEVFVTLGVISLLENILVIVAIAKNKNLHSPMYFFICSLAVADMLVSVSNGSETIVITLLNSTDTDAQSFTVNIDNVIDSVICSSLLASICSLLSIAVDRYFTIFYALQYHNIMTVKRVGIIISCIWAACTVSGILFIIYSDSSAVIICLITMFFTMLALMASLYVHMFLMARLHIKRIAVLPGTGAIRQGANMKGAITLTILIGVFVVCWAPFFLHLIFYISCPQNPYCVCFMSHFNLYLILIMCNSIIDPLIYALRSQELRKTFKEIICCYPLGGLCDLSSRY
T6 sequence (P41968 whole entry): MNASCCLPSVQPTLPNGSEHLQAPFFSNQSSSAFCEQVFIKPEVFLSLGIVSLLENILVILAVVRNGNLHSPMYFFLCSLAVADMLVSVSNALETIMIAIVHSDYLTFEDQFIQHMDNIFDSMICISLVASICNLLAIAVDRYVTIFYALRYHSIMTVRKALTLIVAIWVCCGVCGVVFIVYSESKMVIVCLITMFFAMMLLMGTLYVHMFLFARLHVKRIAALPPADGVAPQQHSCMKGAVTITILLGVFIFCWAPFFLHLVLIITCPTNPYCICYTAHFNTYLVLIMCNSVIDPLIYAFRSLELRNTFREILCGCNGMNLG
T9 sequence (P41145 whole entry): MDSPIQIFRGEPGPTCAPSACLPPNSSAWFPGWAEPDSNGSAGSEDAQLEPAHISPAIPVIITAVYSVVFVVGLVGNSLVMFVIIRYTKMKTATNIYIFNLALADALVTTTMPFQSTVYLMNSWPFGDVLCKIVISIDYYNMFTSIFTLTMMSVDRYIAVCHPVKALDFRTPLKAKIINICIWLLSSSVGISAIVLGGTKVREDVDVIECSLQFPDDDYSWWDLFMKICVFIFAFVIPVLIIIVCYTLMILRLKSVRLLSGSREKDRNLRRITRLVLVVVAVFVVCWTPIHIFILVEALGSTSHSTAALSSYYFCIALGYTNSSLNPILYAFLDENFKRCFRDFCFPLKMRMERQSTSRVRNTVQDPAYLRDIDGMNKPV
T2 sequence (Q99705 whole entry): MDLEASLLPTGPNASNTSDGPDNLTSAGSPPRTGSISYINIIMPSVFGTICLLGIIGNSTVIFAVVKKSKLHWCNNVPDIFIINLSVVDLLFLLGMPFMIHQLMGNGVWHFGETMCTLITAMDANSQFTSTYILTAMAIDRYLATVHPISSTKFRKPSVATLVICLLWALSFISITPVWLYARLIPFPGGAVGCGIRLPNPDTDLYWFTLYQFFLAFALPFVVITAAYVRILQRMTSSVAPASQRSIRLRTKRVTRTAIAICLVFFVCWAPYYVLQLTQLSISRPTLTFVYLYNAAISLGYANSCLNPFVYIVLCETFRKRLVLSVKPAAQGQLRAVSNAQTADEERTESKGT
T7 sequence (P35372 whole entry): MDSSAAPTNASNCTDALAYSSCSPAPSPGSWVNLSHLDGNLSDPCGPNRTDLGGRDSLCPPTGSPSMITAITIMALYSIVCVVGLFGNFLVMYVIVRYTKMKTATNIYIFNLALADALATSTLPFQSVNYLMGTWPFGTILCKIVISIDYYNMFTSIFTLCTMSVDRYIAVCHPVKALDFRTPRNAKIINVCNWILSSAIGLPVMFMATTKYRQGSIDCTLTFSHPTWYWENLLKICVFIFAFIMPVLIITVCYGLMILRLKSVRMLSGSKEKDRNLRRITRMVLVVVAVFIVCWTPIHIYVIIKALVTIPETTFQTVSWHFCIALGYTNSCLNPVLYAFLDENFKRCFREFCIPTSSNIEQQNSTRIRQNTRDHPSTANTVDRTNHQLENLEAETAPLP
T3 sequence (P41143 whole entry): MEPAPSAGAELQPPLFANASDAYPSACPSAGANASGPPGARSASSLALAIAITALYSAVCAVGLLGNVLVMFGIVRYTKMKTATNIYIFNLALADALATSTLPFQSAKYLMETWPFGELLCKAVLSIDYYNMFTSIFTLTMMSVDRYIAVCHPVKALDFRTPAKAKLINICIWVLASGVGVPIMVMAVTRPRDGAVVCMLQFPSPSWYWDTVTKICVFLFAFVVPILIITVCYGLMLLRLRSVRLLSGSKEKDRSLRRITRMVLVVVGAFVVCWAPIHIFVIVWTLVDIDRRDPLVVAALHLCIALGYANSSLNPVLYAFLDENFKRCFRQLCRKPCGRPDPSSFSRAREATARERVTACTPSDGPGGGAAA
T5 sequence (P41146 whole entry): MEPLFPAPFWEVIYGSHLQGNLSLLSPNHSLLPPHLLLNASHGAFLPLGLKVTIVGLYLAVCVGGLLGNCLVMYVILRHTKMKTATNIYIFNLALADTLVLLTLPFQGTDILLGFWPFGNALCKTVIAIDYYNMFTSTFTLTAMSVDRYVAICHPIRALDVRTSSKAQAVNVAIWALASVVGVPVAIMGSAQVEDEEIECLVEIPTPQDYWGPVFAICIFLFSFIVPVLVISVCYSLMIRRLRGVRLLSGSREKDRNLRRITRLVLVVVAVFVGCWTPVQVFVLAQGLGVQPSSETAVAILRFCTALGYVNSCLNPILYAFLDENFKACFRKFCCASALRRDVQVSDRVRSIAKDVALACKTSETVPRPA

SMILES	A8 radioligand binding, percentage inhibition [1]	A6 radioligand binding, percentage inhibition [2]	A1 radioligand binding, percentage inhibition [3]	A11 radioligand binding, percentage inhibition [4]	A10 radioligand binding, percentage inhibition [5]	A3 radioligand binding, percentage inhibition [6]	A7 radioligand binding, percentage inhibition [7]	A5 radioligand binding, percentage inhibition [8]	A2 radioligand binding, percentage inhibition [9]	A8: inhibition of radioligand binding, human neurokinin (NK1) [1]	A6: inhibition of radioligand binding, human melanin-concentrating hormone (MCH1) [2]	A1: inhibition of radioligand binding, human δ-opioid (DOP) [3]	A11: inhibition of radioligand binding, mouse urotensin (mUR2) [4]	A10: inhibition of radioligand binding, human opioid (ORL1) [5]	A3: inhibition of radioligand binding, human melanocortin (MC3) [6]	A7: inhibition of radioligand binding, human μ-opioid (MOP) [7]	A5: inhibition of radioligand binding, human melanocortin (MC5) [8]	A2: inhibition of radioligand binding, human κ-opioid (KOP) [9]	A4: inhibition of radioligand binding, human melanocortin (MC4) [10]	A9: inhibition of radioligand binding, human neuropeptide Y (NPY-Y1) [11]	also measured
CO[C@H]1[C@H](O)[C@@H](COCc2cccc(O)c2)OC(OCc2ccc3ccccc3c2)[C@@H]1NC(=O)CCCNC(=N)N (stereo partly drawn) [compound 152]	− (“−” indicates less than 50% inhibition at 10 μM)	− (“−” indicates less than 50% inhibition at 10 μM)	− (“−” indicates less than 50% inhibition at 10 μM)	− (“−” indicates less than 50% inhibition at 10 μM)	− (“−” indicates less than 50% inhibition at 10 μM)	− (“−” indicates less than 50% inhibition at 10 μM)	+ (“+” indicates greater than 50% inhibition at 10 μM)	− (“−” indicates less than 50% inhibition at 10 μM)	− (“−” indicates less than 50% inhibition at 10 μM)	–	–	–	–	–	–	–	–	–	–	–	A4 radioligand binding, percentage inhibition [10]: − (“−” indicates less than 50% inhibition at 10 μM); A9 radioligand binding, percentage inhibition [11]: − (“−” indicates less than 50% inhibition at 10 μM)
CO[C@H]1[C@H](O)[C@@H](COCc2ccccc2)OC(OCc2ccc(-c3ccccc3)cc2)[C@@H]1NC(=O)CNC(=N)N (stereo partly drawn) [compound 58]	–	–	–	–	–	–	–	–	–	–	–	–	–	–	–	–	–	–	–	–	A8 radioligand binding inhibition ([1]; human neurokinin NK1 membranes): + (“+” indicates greater than 50% inhibition at 10 μM); A6 radioligand binding inhibition ([2]; human MCH1 membranes): − (“−” indicates less than 50% inhibition at 10 μM); A1 radioligand binding inhibition ([3]; human δ-opioid (DOP) membranes): − (“−” indicates less than 50% inhibition at 10 μM); A11 radioligand binding inhibition ([4]; mouse urotensin mUR2 membranes): − (“−” indicates less than 50% inhibition at 10 μM); A10 radioligand binding inhibition ([5]; human ORL1 membranes): − (“−” indicates less than 50% inhibition at 10 μM); A3 radioligand binding inhibition ([6]; human melanocortin MC3 membranes): − (“−” indicates less than 50% inhibition at 10 μM); A7 radioligand binding inhibition ([7]; human μ-opioid (MOP) membranes): + (“+” indicates greater than 50% inhibition at 10 μM); A5 radioligand binding inhibition ([8]; human melanocortin MC5 membranes): + (“+” indicates greater than 50% inhibition at 10 μM); A2 radioligand binding inhibition ([9]; human κ-opioid (KOP) membranes): + (“+” indicates greater than 50% inhibition at 10 μM); A4 radioligand binding inhibition ([10]; human melanocortin MC4 membranes): + (“+” indicates greater than 50% inhibition at 10 μM); A9 radioligand binding inhibition ([11]; human NPY-Y1 membranes): − (“−” indicates less than 50% inhibition at 10 μM)
CSC1OC(COCc2ccccc2)C(O)C(OCc2cccc(N)c2)C1NC(=O)C=Cc1ccccc1 (stereo not drawn) [compound 324]	–	–	–	–	–	–	–	–	–	+ (“+” indicates greater than 50% inhibition at 10 μM)	− (“−” indicates less than 50% inhibition at 10 μM)	− (“−” indicates less than 50% inhibition at 10 μM)	− (“−” indicates less than 50% inhibition at 10 μM)	− (“−” indicates less than 50% inhibition at 10 μM)	− (“−” indicates less than 50% inhibition at 10 μM)	− (“−” indicates less than 50% inhibition at 10 μM)	− (“−” indicates less than 50% inhibition at 10 μM)	− (“−” indicates less than 50% inhibition at 10 μM)	− (“−” indicates less than 50% inhibition at 10 μM)	− (“−” indicates less than 50% inhibition at 10 μM)	–
CSC1OC(COCc2ccc(Cl)cc2)C(O)C(OCc2ccc3ccccc3c2)C1NC(=O)CN (stereo not drawn) [compound 306]	–	–	–	–	–	–	–	–	–	+ (“+” indicates greater than 50% inhibition at 10 μM)	− (“−” indicates less than 50% inhibition at 10 μM)	− (“−” indicates less than 50% inhibition at 10 μM)	− (“−” indicates less than 50% inhibition at 10 μM)	− (“−” indicates less than 50% inhibition at 10 μM)	− (“−” indicates less than 50% inhibition at 10 μM)	− (“−” indicates less than 50% inhibition at 10 μM)	− (“−” indicates less than 50% inhibition at 10 μM)	− (“−” indicates less than 50% inhibition at 10 μM)	− (“−” indicates less than 50% inhibition at 10 μM)	− (“−” indicates less than 50% inhibition at 10 μM)	–
CO[C@H]1[C@H](O)[C@@H](COCc2ccc(Cl)cc2)OC(OCc2ccc(Cl)cc2)[C@@H]1NC(=O)CCCNC(=N)N (stereo partly drawn) [compound 108]	+ (“+” indicates greater than 50% inhibition at 10 μM)	− (“−” indicates less than 50% inhibition at 10 μM)	− (“−” indicates less than 50% inhibition at 10 μM)	− (“−” indicates less than 50% inhibition at 10 μM)	− (“−” indicates less than 50% inhibition at 10 μM)	+ (“+” indicates greater than 50% inhibition at 10 μM)	− (“−” indicates less than 50% inhibition at 10 μM)	+ (“+” indicates greater than 50% inhibition at 10 μM)	− (“−” indicates less than 50% inhibition at 10 μM)	–	–	–	–	–	–	–	–	–	–	–	A4 radioligand binding, percentage inhibition [10]: + (“+” indicates greater than 50% inhibition at 10 μM); A9 radioligand binding, percentage inhibition [11]: − (“−” indicates less than 50% inhibition at 10 μM)
CSC1OC(COCc2ccc3ccccc3c2)C(O)C(OCc2ccc3ccccc3c2)C1NC(=O)CN (stereo not drawn) [compound 316]	–	–	–	–	–	–	–	–	–	+ (“+” indicates greater than 50% inhibition at 10 μM)	− (“−” indicates less than 50% inhibition at 10 μM)	− (“−” indicates less than 50% inhibition at 10 μM)	− (“−” indicates less than 50% inhibition at 10 μM)	− (“−” indicates less than 50% inhibition at 10 μM)	− (“−” indicates less than 50% inhibition at 10 μM)	− (“−” indicates less than 50% inhibition at 10 μM)	− (“−” indicates less than 50% inhibition at 10 μM)	− (“−” indicates less than 50% inhibition at 10 μM)	+ (“+” indicates greater than 50% inhibition at 10 μM)	− (“−” indicates less than 50% inhibition at 10 μM)	–
